Data set [1] deals with tissue cells (FIGS. 6A, 6C). In words: Safety test, survival rate of tissue cells (FIGS. 6A and 6C).
Data set [2] relates to tissue cells (FIGS. 6B, 6D). In words: Safety test, survival rate of tissue cells (FIGS. 6B and 6D).

The source of these data is patent US11471387B2, “Oral cavity care method and oral cavity care system” (priority 2017, dated 2022).

In the case of `[H]/N=C(\N/C(=N/[H])NCCCCCCNC(=N)NC(=N)Nc1ccc(Cl)cc1)Nc1ccc(Cl)cc1` [chlorhexidine], the “50% survival rate of tissue cells (time)” value in data set [1] (FIG. 6A) came to 10.8 h; in data set [2] (FIG. 6B) it was 8.4 h. Also, the cytotoxicity with time result in data set [1] (tissue cells of FIGS. 6A/6C) and in data set [2] (tissue cells of FIGS. 6B/6D) was “cytotoxic with time” throughout.
